Data from ChEMBL document CHEMBL1201862, “PubChem BioAssay data set” (2004).
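Grown in 96-well plates, cells were treated for 48 hours with each compound at five concentrations. Insufficient inhibition: endpoint recorded as highest concentration tested. GI50: concentration for 50% inhibition of growth.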 Activity calls are given as the source filed them. Rule as the data show it: active = GI50 up to about 1.1 µM and inactive = higher.

Key:
Experiment in all cases: NCI-60 cell line screen, 48 h
A498 = tested on: A498
A549 = tested on: A549
ACHN = tested on: ACHN
BT-549 = tested on: BT-549
CAKI-1 = tested on: CAKI-1
CCRF-CEM = tested on: CCRF-CEM
COLO 205 = tested on: COLO 205
DU-145 = tested on: DU-145
HCT-15 = tested on: HCT-15
HL-60 = tested on: HL-60
HOP-62 = tested on: HOP-62
HOP-92 = tested on: HOP-92
HT-29 = tested on: HT-29
Hs-578T = tested on: Hs-578T
IGROV-1 = tested on: IGROV-1
K562 = tested on: K562
KM12 = tested on: KM12
LOX IMVI = tested on: LOX IMVI
M14 = tested on: M14
MCF7 = tested on: MCF7
MDA-MB-231 = tested on: MDA-MB-231
MDA-MB-435 = tested on: MDA-MB-435
MDA-N = tested on: MDA-N
MOLT-4 = tested on: MOLT-4
Malme-3M = tested on: Malme-3M
NCI-H23 = tested on: NCI-H23
NCI-H460 = tested on: NCI-H460
NCI-H522 = tested on: NCI-H522
NCI/ADR-RES = tested on: NCI/ADR-RES
OVCAR-3 = tested on: OVCAR-3
OVCAR-4 = tested on: OVCAR-4
OVCAR-5 = tested on: OVCAR-5
OVCAR-8 = tested on: OVCAR-8
PC-3 = tested on: PC-3
RPMI-8226 = tested on: RPMI-8226
SF-268 = tested on: SF-268
SF-295 = tested on: SF-295
SF-539 = tested on: SF-539
SK-MEL-28 = tested on: SK-MEL-28
SK-MEL-2 = tested on: SK-MEL-2
SK-MEL-5 = tested on: SK-MEL-5
SK-OV-3 = tested on: SK-OV-3
SN12C = tested on: SN12C
SNB-19 = tested on: SNB-19
SNB-75 = tested on: SNB-75
SR = tested on: SR
SW-620 = tested on: SW-620
T47D = tested on: T47D
TK-10 = tested on: TK-10
U-251 = tested on: U-251
UACC-257 = tested on: UACC-257
UACC-62 = tested on: UACC-62
UO-31 = tested on: UO-31
786-0 = tested on: 786-0
EKVX = tested on: EKVX
HCC 2998 = tested on: HCC 2998
HCT-116 = tested on: HCT-116
RXF 393 = tested on: RXF 393
NCI-H226 = tested on: NCI-H226

SMILES: O=C(/C=C1\Nc2ncccc2N=C1CC(=O)c1ccccc1)c1ccccc1
- GI50 (A498): 7.35 µM (inactive)
- GI50 (A549): 6.05 µM (inactive)
- GI50 (ACHN): 4.94 µM (inactive)
- GI50 (BT-549): 2.71 µM (inactive)
- GI50 (CAKI-1): 2.06 µM (inactive)
- GI50 (CCRF-CEM): 2.49 µM (inactive)
- GI50 (COLO 205): 4.97 µM (inactive)
- GI50 (DU-145): 12.9 µM (inactive)
- GI50 (HCT-15): 2 µM
- GI50 (HL-60): 13.5 µM (inactive)
- GI50 (HOP-62): 0.679 µM (active)
- GI50 (HOP-92): 3.52 µM (inactive)
- GI50 (HT-29): 6.89 µM (inactive)
- GI50 (Hs-578T): 15.6 µM (inactive)
- GI50 (IGROV-1): 2.72 µM (inactive)
- GI50 (K562): 5.11 µM (inactive)
- GI50 (KM12): 6.43 µM (inactive)
- GI50 (LOX IMVI): 5.12 µM (inactive)
- GI50 (M14): 7.35 µM (inactive)
- GI50 (MCF7): 3.61 µM (inactive)
- GI50 (MDA-MB-231): 10.6 µM (inactive)
- GI50 (MDA-MB-435): 5.93 µM (inactive)
- GI50 (MDA-N): 7.52 µM (inactive)
- GI50 (MOLT-4): 3.4 µM (inactive)
- GI50 (Malme-3M): 37.4 µM (inactive)
- GI50 (NCI-H23): 23.1 µM (inactive)
- GI50 (NCI-H460): 1.59 µM (inactive)
- GI50 (NCI-H522): 11 µM (inactive)
- GI50 (NCI/ADR-RES): 4.56 µM (inactive)
- GI50 (OVCAR-3): 1.66 µM (inactive)
- GI50 (OVCAR-4): 9.2 µM (inactive)
- GI50 (OVCAR-5): 23.5 µM (inactive)
- GI50 (OVCAR-8): 5.93 µM (inactive)
- GI50 (PC-3): 10.1 µM (inactive)
- GI50 (RPMI-8226): 5.37 µM (inactive)
- GI50 (SF-268): 2.53 µM (inactive)
- GI50 (SF-295): 4.44 µM (inactive)
- GI50 (SF-539): 13.2 µM (inactive)
- GI50 (SK-MEL-28): 32.3 µM (inactive)
- GI50 (SK-MEL-2): 12.6 µM (inactive)
- GI50 (SK-MEL-5): 4.16 µM (inactive)
- GI50 (SK-OV-3): 12 µM (inactive)
- GI50 (SN12C): 2.24 µM (inactive)
- GI50 (SNB-19): 7.69 µM (inactive)
- GI50 (SNB-75): 20.4 µM (inactive)
- GI50 (SR): 4.66 µM (inactive)
- GI50 (SW-620): 5.52 µM (inactive)
- GI50 (T47D): 9.31 µM (inactive)
- GI50 (TK-10): 35.6 µM (inactive)
- GI50 (U-251): 3.24 µM (inactive)
- GI50 (UACC-257): 65.6 µM (inactive)
- GI50 (UACC-62): 2.84 µM (inactive)
- GI50 (UO-31): 5.47 µM (inactive)

SMILES: Cc1ccc2c3c(cnc2n1)C(=O)OCCN3C
- GI50 (786-0): > 100 µM (inactive)
- GI50 (A498): > 100 µM (inactive)
- GI50 (A549): > 100 µM (inactive)
- GI50 (ACHN): > 100 µM (inactive)
- GI50 (BT-549): > 100 µM (inactive)
- GI50 (CAKI-1): > 100 µM (inactive)
- GI50 (CCRF-CEM): > 100 µM (inactive)
- GI50 (COLO 205): > 100 µM (inactive)
- GI50 (DU-145): > 100 µM (inactive)
- GI50 (EKVX): > 100 µM (inactive)
- GI50 (HCC 2998): > 100 µM (inactive)
- GI50 (HCT-116): > 100 µM (inactive)
- GI50 (HCT-15): > 100 µM
- GI50 (HL-60): > 100 µM (inactive)
- GI50 (HOP-62): > 100 µM (inactive)
- GI50 (HOP-92): > 100 µM (inactive)
- GI50 (HT-29): > 100 µM (inactive)
- GI50 (Hs-578T): > 100 µM (inactive)
- GI50 (IGROV-1): > 100 µM (inactive)
- GI50 (K562): > 100 µM (inactive)
- GI50 (KM12): > 100 µM (inactive)
- GI50 (LOX IMVI): > 100 µM (inactive)
- GI50 (M14): > 100 µM (inactive)
- GI50 (MCF7): > 100 µM (inactive)
- GI50 (MDA-MB-231): > 100 µM (inactive)
- GI50 (MDA-MB-435): > 100 µM (inactive)
- GI50 (MDA-N): > 100 µM (inactive)
- GI50 (MOLT-4): > 100 µM (inactive)
- GI50 (NCI-H23): > 100 µM (inactive)
- GI50 (NCI-H460): > 100 µM (inactive)
- GI50 (NCI-H522): > 100 µM (inactive)
- GI50 (NCI/ADR-RES): > 100 µM (inactive)
- GI50 (OVCAR-3): > 100 µM (inactive)
- GI50 (OVCAR-4): > 100 µM (inactive)
- GI50 (OVCAR-5): > 100 µM (inactive)
- GI50 (OVCAR-8): > 100 µM (inactive)
- GI50 (PC-3): > 100 µM (inactive)
- GI50 (RXF 393): > 100 µM (inactive)
- GI50 (SF-268): > 100 µM (inactive)
- GI50 (SF-295): > 100 µM (inactive)
- GI50 (SF-539): > 100 µM (inactive)
- GI50 (SK-MEL-28): > 100 µM (inactive)
- GI50 (SK-MEL-2): > 100 µM (inactive)
- GI50 (SK-MEL-5): > 100 µM (inactive)
- GI50 (SN12C): > 100 µM (inactive)
- GI50 (SNB-19): > 100 µM (inactive)
- GI50 (SR): > 100 µM (inactive)
- GI50 (SW-620): > 100 µM (inactive)
- GI50 (T47D): > 100 µM (inactive)
- GI50 (TK-10): > 100 µM (inactive)
- GI50 (U-251): > 100 µM (inactive)
- GI50 (UACC-257): > 100 µM (inactive)
- GI50 (UACC-62): > 100 µM (inactive)
- GI50 (UO-31): > 100 µM (inactive)

SMILES: CN(/N=C/c1ccc(Cl)cc1)C1=NCCCCN1
- GI50 (786-0): 99.8 µM (inactive)
- GI50 (A498): 56.9 µM (inactive)
- GI50 (A549): 93.8 µM (inactive)
- GI50 (ACHN): > 100 µM (inactive)
- GI50 (BT-549): > 100 µM (inactive)
- GI50 (CAKI-1): > 100 µM (inactive)
- GI50 (CCRF-CEM): 38.1 µM (inactive)
- GI50 (COLO 205): 35.1 µM (inactive)
- GI50 (DU-145): > 100 µM (inactive)
- GI50 (EKVX): > 100 µM (inactive)
- GI50 (HCC 2998): 44.6 µM (inactive)
- GI50 (HCT-116): 48.1 µM (inactive)
- GI50 (HCT-15): > 100 µM
- GI50 (HL-60): 30.3 µM (inactive)
- GI50 (HOP-62): > 100 µM (inactive)
- GI50 (HOP-92): 47.3 µM (inactive)
- GI50 (HT-29): 66.2 µM (inactive)
- GI50 (Hs-578T): > 100 µM (inactive)
- GI50 (IGROV-1): > 100 µM (inactive)
- GI50 (K562): 18.9 µM (inactive)
- GI50 (KM12): 50.5 µM (inactive)
- GI50 (LOX IMVI): 22.1 µM (inactive)
- GI50 (M14): 24.6 µM (inactive)
- GI50 (MCF7): > 100 µM (inactive)
- GI50 (MDA-MB-231): 35 µM (inactive)
- GI50 (MDA-MB-435): 72.1 µM (inactive)
- GI50 (MDA-N): > 100 µM (inactive)
- GI50 (MOLT-4): 26.7 µM (inactive)
- GI50 (Malme-3M): 62.8 µM (inactive)
- GI50 (NCI-H226): > 100 µM (inactive)
- GI50 (NCI-H23): > 100 µM (inactive)
- GI50 (NCI-H460): > 100 µM (inactive)
- GI50 (NCI-H522): 39.4 µM (inactive)
- GI50 (NCI/ADR-RES): > 100 µM (inactive)
- GI50 (OVCAR-3): > 100 µM (inactive)
- GI50 (OVCAR-4): > 100 µM (inactive)
- GI50 (OVCAR-5): > 100 µM (inactive)
- GI50 (OVCAR-8): > 100 µM (inactive)
- GI50 (PC-3): 32.9 µM (inactive)
- GI50 (RPMI-8226): > 100 µM (inactive)
- GI50 (SF-268): > 100 µM (inactive)
- GI50 (SF-295): > 100 µM (inactive)
- GI50 (SF-539): > 100 µM (inactive)
- GI50 (SK-MEL-2): > 10 µM (inactive)
- GI50 (SK-MEL-5): 53.2 µM (inactive)
- GI50 (SK-OV-3): > 100 µM (inactive)
- GI50 (SN12C): 81.5 µM (inactive)
- GI50 (SNB-19): > 100 µM (inactive)
- GI50 (SNB-75): 68.7 µM (inactive)
- GI50 (SR): > 100 µM (inactive)
- GI50 (SW-620): > 100 µM (inactive)
- GI50 (T47D): > 100 µM (inactive)
- GI50 (TK-10): > 100 µM (inactive)
- GI50 (U-251): > 100 µM (inactive)
- GI50 (UACC-257): > 100 µM (inactive)
- GI50 (UACC-62): 67.1 µM (inactive)
- GI50 (UO-31): > 100 µM (inactive)
